Data: patent publication US20060247421A1, “Liver x receptor alpha splicing mutant protein, gene thereof and utilization of the same” (priority 2003, published 2006)

Test system: liver X receptor α splicing mutant proteins (D5, 5A and 6A)
Assay: Reporter assay in a transient expression system in HEK293 cells (TATA-LXREx4-luciferase), ligand-dependent transcription activating ability
Assay type: cell-based, human
Settings: three kinds of liver X receptor α splicing mutant proteins
Method: FIG. 5 is a view showing the results of assessment of the function of liver X receptor α splicing mutant proteins (D5, 5A and 6A) by a reporter assay in a transient expression system in HEK293 cells. […] A non-treated section is represented by white, a 1 μg/ml 22R-hydroxycholesterol-treated section is represented by black, and a 1 μg/ml 25-hydroxycholesterol-treated section is represented by gray. In addition, in each test section, 1 μM 9-cis retinoic acid is contained. Letting a value of luciferase activity in a control section (control) in which only a solvent was added to be 100%, a value of luciferase activity in each test section is shown as a relative value. WT means a normal liver X receptor α.
A human fetal kidney-derived HEK293 cell strain (ATCC; CRL-1573) was subcultured in a Dulbecco modified Eagle medium (DMEM) containing 10% bovine fetal serum (FBS) from which low-molecular substances had been removed with charcoal dextran, and penicillin (100 unit/ml) and streptomycin ([…]) as an antibiotic, and not containing phenol red at 37° C. under the presence of 5% CO2. The subcultured HEK293 cell strain was seeded on a 10 cm cell culturing dish to about 2×10^6 cells. […]

CC(C)CC[C@@H](O)[C@@H](C)[C@H]1CC[C@H]2[C@@H]3CC=C4C[C@@H](O)CC[C@]4(C)[C@H]3CC[C@]12C [22R-oxycholesterol]
transcription activating ability depending on ligand, as compared with that of a normal liver X receptor α: extremely weak or not recognized level
